Assay results as given in US9006487B2, “Amine-containing lipids and uses thereof” (Massachusetts Institute of Technology, priority 2005, dated 2015).

Tested on: cos-7 cells
Experiment: DNA transfection: luciferase expression relative to Lipofectamine 2000
Type: cell-based
Details: for Luciferase expression as a percentage of that achieved using Lipofectamine 2000: 300 ng Luciferase DNA per well, luciferase assay after 48 hours; for luciferase expression (second part of table, values relative to LIPO2000): 300 ng of DNA per well
Method: 14,000 cos-7 cells (ATCC, Manassas, Va.) were seeded into each well of a solid white or clear 96 well plate (Corning-Costar, Kennebunk, Me.) and allowed to attached overnight in growth medium, composed of: 500 ml phenol red minus DMEM, 50 ml heat inactivated FBS, 5 ml penicillin/streptomycin (Invitrogen, Carlsbad, Calif.).
A small liquot of lipid was tranferred to an Eppendorf tube. Based on the mass of the lipid in the tube, sterile 25 mM sodium acetate buffer was added to each tube to yield a concentration of 60 mg/ml. The resulting mixture was vortexed for approximately 20 minutes until the lipid was fully dissolved. DNA was prepared based on 300 ng DNA per well of a 96-well plate. 291 μg of Lc DNA was dissolved in 9210 μl of 25 mM sodium acetate buffer. Aliquots of 30 μl of DNA solution were added to each well expect for the last column which was reserved for the Lipo2000 standard. For the last column of the plate, 61 μg of DNA was added to 1940 μl Optimem. 150 μl of media/Optimem was added to each well of plates. 50 μl of lipid solution was aliquoted into wells of robot plate. The following amounts were aliquoted to obtain the correct ratios of DNA to lipid:
In quadruplicate, 30 μl of lipid was aliquoted onto DNA in four rows for each ratio. For the Lipo2000 control (2.5 w/w ratio to DNA), 152.5 μg of Lipo sample was aliquoted into 1847.5 μl of Optimem. 30 μl of this solution was aliquoted onto DNA in the Optimem in the last columns of each plate. The plates were incubated for 15-20 minutes, and then 36.5 μl of lipid+DNA complexes was transferred into 150 μl of media/Optimem, then add to cells. The media was aspirated off the cells, and 105 μl of the lipid/DNA/media/Optimem solution was added to the cells. The luciferase assay was performed after 48 hours.
Luminescence was analyzed using bright-glo assay kits (Promega). Briefly, 100 μl of bright-glo solution was added to each well of the microtiter plate containing media and cells. Luminescence was measured using a Mithras Luminometer (Berthold, Oak Ridge, Tenn.). In some cases, a neutral density filter (Chroma, Brattleboro, Vt.) was used to prevent saturation of the luminometer. A standard curve for Luciferase was generated by titration of Luciferase enzyme (Promega) into growth media in white microtiter plates. Luciferase in ng per well are calculated for each of the lipids at 2.5 w/w, 5 w/w, 10 w/w, 15 w/w, 20 w/w, and 25 w/w lipid to DNA based on the standard curve.
The table below summarizes the data as a % of the luciferase activity obtained from the use of Lipofectamine 2000. The table indicates the best lipids for transfection.

| SMILES | Luciferase expression as a percentage of that achieved using Lipofectamine 2000 (lipid/DNA 2.5 w/w) [%] | Luciferase expression as a percentage of that achieved using Lipofectamine 2000 (lipid/DNA 5 w/w) [%] | Luciferase expression as a percentage of that achieved using Lipofectamine 2000 (lipid/DNA 10 w/w) [%] | Luciferase expression as a percentage of that achieved using Lipofectamine 2000 (lipid/DNA 15 w/w) [%] | Luciferase expression as a percentage of that achieved using Lipofectamine 2000 (lipid/DNA 20 w/w) [%] | Luciferase expression as a percentage of that achieved using Lipofectamine 2000 (lipid/DNA 25 w/w) [%] | luciferase expression (second part of table, values relative to LIPO2000) (lipid/DNA 10 w/w) | luciferase expression (second part of table, values relative to LIPO2000) (lipid/DNA 15 w/w) |
| --- | --- | --- | --- | --- | --- | --- | --- | --- |
| CCCCCCCCCCCCOC(=O)CCN(CCC(=O)OCCCCCCCCCCCC)CCN(CC)CC [LD75] | 0.1 | 0.1 | 0.1 | 0.2 | 0.2 | 0.2 |  |  |
| CCCCCCCCCCCCOC(=O)CCN(CCC(=O)OCCCCCCCCCCCC)CCN1CCCC1 [LD76] | 0.1 | 0.1 | 0.2 | 0.3 | 0.2 | 0.4 |  |  |
| CCCCCCCCCCCCOC(=O)CCN(CCC(=O)OCCCCCCCCCCCC)CCC1CCCN1C (stereo not drawn) [LD77] | 0.1 | 0.1 | 6.9 | 11.1 | 6.4 | 2.9 |  |  |
| CCCCCCCCCCCCOC(=O)CCN(CCC(=O)OCCCCCCCCCCCC)C(C)CN(C)C (stereo not drawn) [LD79] | 0.1 | 0.1 | 0.1 | 0.2 | 0.3 | 0.2 |  |  |
| CCCCCCCCCCCCOC(=O)CCN(CCCN(C)C)CCC(=O)OCCCCCCCCCCCC [LD80] | 0.1 | 0.1 | 3.7 | 6.5 | 7.1 | 2.1 |  |  |
| CCCCCCCCCCCCOC(=O)CCN(CCCN(CC)CC)CCC(=O)OCCCCCCCCCCCC [LD81] | 0.1 | 0.1 | 15.2 | 7.6 | 5.4 | 2.3 |  |  |
| CCCCCCCCCCCCOC(=O)CCN(CCC(=O)OCCCCCCCCCCCC)CCN1CCCCC1 [LD82] | 0.1 | 0.1 | 0.2 | 0.3 | 0.4 | 0.7 |  |  |
| CCCCCCCCCCCCOC(=O)CCN(CCC(=O)OCCCCCCCCCCCC)CCN(CCO)CCO [LD86] |  |  | 29.6 | 16.0 |  |  |  |  |
| CCCCCCCCCCCCOC(=O)CCN(CCCN(CCO)CCO)CCC(=O)OCCCCCCCCCCCC [LD87] |  |  | 53.9 | 43.3 |  |  | 53.9 | 43.3 |
